Earlier results, collected in patent US20240180159A1, “NEW OIL SUSPENSION CONCENTRATE COMPOSITION” (SYNGENTA CROP PROTECTION AG, priority 2021, published 2024).

Details: basic pH 8-14 conditions

CN1COCN(Cc2cnc(Cl)s2)/C1=N\[N+](=O)[O-] [thiamethoxam]
susceptibility to hydrolysis: susceptible to hydrolysis
